This note sets out measurements from patent US20150045387A1, “Bi-Aromatic And Tri-Aromatic Compounds As NADPH Oxidase 2 (Nox2) Inhibitors” (The University of Surrey, priority 2011, published 2015).

In series [1] the test system is bone marrow hematopoietic stem cells. The series is described as follows: in vivo test of LMH001 on bone marrow hematopoietic stem cell proliferation (MTS assay). As to conditions: 2.2 mg/kg/day intra-peritoneal for two weeks, compared to vehicle injected controls, n=8 mice/per group. How it is done: FIG. 3 is a graph showing the effect of LMH001 (2 week, IP injection) on bone marrow hematopoietic stem cell proliferation in mice. Wild-type mice (C57BL6/J) at 5 months of age were injected intra-peritoneal with LMH001 at 2.2 mg/kg/day for two weeks. Bone marrow hematopoietic stem cells were isolated and test for cell proliferation by a MTS assay kit (Promega).
On the day of experiment, primary hematopoietic bone marrow cells were obtained from wild-type male C57BL/6 mice as described previously (11). Briefly, 12-16 week old mice were sacrificed by cervical dislocation and their hind legs dissected and carefully cleaned from adherent tissues. Next, the ends of each bone were removed to expose the marrow and this was collected by flushing the femurs and tibias using a 25 gauge needle loaded with Dulbecco's PBS. […]
The ex vivo proliferative capabilities of isolated BMSC or cultured cells were analyzed using the MTS proliferation assay. […] After 24 hours in culture medium containing LMH001 (0-10 μM), proliferation was assessed using the MTS (CellTiter 96 AQ; Promega, Madison, USA) assay according to the manufacturer's protocol. The absorbance at 490 nm was read using an ELISA plate reader (Perkin elmer), and the proliferation index calculated relative to the controls. The mean of 3 blank readings was subtracted from each corrected value. […]
A general note: Tetrazolium dyes change colour on reduction, which living cells bring about.

For series [2], the system named is microvascular endothelial cells (SVEC4-10). The series is described as follows: basal and angiotensin II induced O2.- production, lucigenin-chemiluminescence. It is filed as cell-based, mouse. As to conditions: LMH001 5 μM, 24 h in culture, cell homogenates, NADPH-dependent. How it is done:
FIG. 10 is a graph showing the effects of LMH001 in culture on basal and angiotensin II induced O2.^− production by microvascular endothelial cells (SVEC4-10). SVEC4-10 cells were cultured in medium alone (Basal) or in the presence of Angiotensin II (AngII, 200 nM) with or without LMH001 (5 μM) for 24 h. Cells were then harvested and cell homogenates were used for the measurement of NADPH-dependent O2.^− production by lucigenin-chemiluminescence. *P<0.05 (n=3 experiments). […]
(§1) O2^− production by different cell types was measured using lucigenin (5 μM)-chemiluminescence. A microplate luminometer (LumiStar, BMG) was used, which allows the examination of 96 samples at the same time with kinetic reading facilities. […] Dark-adapted lucigenin (5 μM) was added into the well through an auto-dispenser located in the dark chamber just before reading. The light emission was recorded over a 60 minute period and expressed as arbitrary MLU measured by the illuminometer. Each experiment was performed in triplicate and the mean of 3 blank readings was subtracted from each corrected value for each reading. […]
(§2) O2^− production was also studied using total cell homogenate (for the endothelial cells and the fibroblasts). […] Soluble protein concentration was determined using a kit from Bio-Rad Laboratories Ltd. (Hertfordshire, U.K.). […]

Series [3] has as its system human pulmonary endothelial cells (HPMEC). As to the kind of experiment: normal versus high glucose level-induced O2.- production, lucigenin-chemiluminescence. It is filed as cell-based. As to conditions: LMH001 5 μM, 24 h in culture, NADPH 100 μM. How it is done: FIG. 11 is a graph showing the effects of LMH001 in culture on normal glucose level versus high glucose level-induced O2.^− production by human pulmonary endothelial cells (HPMEC). HPMEC were cultured in the medium with normal level of glucose (5 mM) or with high level of glucose (40 mM) in the presence or absence of LMH001 (5 μM) for 24 h. Cells were harvested and cell homogenates were used for measuring NADPH (100 μM)-dependent O2.^− production by lucigenin-chemiluminescence (n=3 experiments).
as §1, §2

Series [4] deals with human lung alveolar epithelial cancer cells (A549 cells). As to the kind of experiment: EGF-induced O2.- production in A549 cells, lucigenin-chemiluminescence. It is filed as cell-based. The note with it: LMH001 5 μM, 24 h. How it is done: A549 cells were seeded at equal number the day before experiments and then stimulated with or without […] (EGF, 10 ng/ml) for 24 h in the presence or absence of LMH001 (5 μM). Cells were then trypsinized and counted. Cell homogenates were used for measuring O2.^− production by lucigenin-chemiluminescence in the presence of NADPH (100 μM).
A549 is a human lung adenocarcinoma epithelial cell line. A549 cells were grown in DMEM, containing 10% (v/v) heat inactivated foetal calf serum, 100 U/mL penicillin and […] streptomycin, in a humidified atmosphere at 37° C. with 5% CO2.
as §1

Turning to `O=C(OCc1cccc(O)c1O)c1ccc(O)c(CO)c1` [LMH001, (2,3,-dihydroxyphenyl)methyl 4-hydroxy-3-(hydroxymethyl)benzoate], the “toxic effect on bone marrow hematopoietic stem cell proliferation” value in series [1] is listed as “no toxic effect”. For the same compound, the “AngII-induced endothelial O2.- production” value in series [2] (Angiotensin II 200 nM) was “completely inhibited”. In series [2] (medium alone), the “basal cell O2.- production” value is on record as “no effect”. In series [3] (glucose 5 mM), the “cell O2.- production under normal glucose levels” value was “no significant effect”. Further, the “high glucose level-induced O2.- production” value in series [3] (glucose 40 mM) is on record as “inhibited completely”. The “EGF-induced O2.- production” value in series [4] (EGF 10 ng/ml) is “inhibited completely”. For the same compound, the “A549 cell O2.- production, LMH001 alone” value in series [4] (no EGF, compared to medium only) is “no significant effect”.
